According to PubChem BioAssay (NCI):
Where “and” joins values, the source holds several entries; their conditions need not be identical. Equal values may be shown once.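 Dose response: 5 concentrations. Exposure: 48 h. Format: 96-well plates. Endpoint: linear interpolation; highest concentration if not reached. The concentration for 50% growth inhibition is given as GI50. TGI denotes the concentration required for complete inhibition of growth.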

Columns and labels:
Test in all cases: NCI anticancer screen, dose series, 48 h
SK-MEL-5 melanoma = system: SK-MEL-5 melanoma
OVCAR-3 ovarian = system: OVCAR-3 ovarian
RXF 393 renal = system: RXF 393 renal
SW-620 colon = system: SW-620 colon
SN12C renal = system: SN12C renal
OVCAR-8 ovarian = system: OVCAR-8 ovarian
IGROV1 ovarian = system: IGROV1 ovarian
UACC-62 melanoma = system: UACC-62 melanoma
MDA-MB-435 = system: MDA-MB-435
HT29 colon = system: HT29 colon

Row | SMILES | TGI (SK-MEL-5 melanoma) | TGI (OVCAR-3 ovarian) | TGI (RXF 393 renal) | TGI (SW-620 colon) | TGI (SN12C renal) | TGI (OVCAR-8 ovarian) | TGI (IGROV1 ovarian) [µM] | TGI (UACC-62 melanoma) | TGI (MDA-MB-435) | TGI (HT29 colon) | GI50 (SK-MEL-5 melanoma) | GI50 (OVCAR-3 ovarian) | GI50 (RXF 393 renal) [µM] | GI50 (SW-620 colon) | GI50 (SN12C renal) | GI50 (OVCAR-8 ovarian) | GI50 (IGROV1 ovarian) [µM] | GI50 (UACC-62 melanoma) [µM] | GI50 (MDA-MB-435) [µM] | GI50 (HT29 colon)
1 | CCCCCCCCC/C=C1\CCC(CN2CCOCC2)C1=O (stereo not given) | 18.8 µM | 24.9 µM | 4 µM | 5.43 µM | 13 µM | 3.13 µM | 14.8 | 10.7 µM | 6.5 µM | 8.7 µM | – | – | – | – | – | – | – | – | – | –
2 | COc1cc(NCc2ccc3oc(=O)c(-c4ccccc4)nc3c2)cc(OC)c1OC | > 10 µM | > 10 µM | > 10 µM | > 10 µM | > 10 µM | > 10 µM | > 10 | > 10 µM | > 10 µM | > 10 µM | – | – | – | – | – | – | – | – | – | –
3 | CCCCCCCC(=O)SCC/C=C/[C@@H]1CC(=O)NCc2cc(ccn2)C2=N[C@@](C)(CS2)C(=O)N[C@@H](C(C)C)C(=O)O1 | 0.051 µM | 0.362 µM | 0.0822 µM | 2.49 µM | > 33.3 µM | > 33.3 µM | 0.132 | 0.0507 µM | – | > 33.3 µM | 0.0117 µM | 0.0362 µM | 0.0128 | 0.0749 µM | 0.0641 µM | 0.0109 µM | 0.00956 | 0.0062 | 0.0115 | 0.0112 µM
4 | CCN1CCN(c2nc(C)cc(N(CCNc3ccnc4cc(Cl)ccc34)Cc3ccc4c(c3)OCO4)n2)CC1 | 3.17 µM | 7.02 µM | 3.08 µM | 3.55 µM | 8.27 µM | 7.9 µM | 7.78 | 3.38 µM | 3.25 µM | 4.83 µM | 1.74 µM | 2.28 µM | 1.44 | 1.62 µM | 2.58 µM | 2.69 µM | 2.36 | 1.85 | 1.7 | 1.83 µM
5 | Cc1cc(/C=C/c2ccc3cc(N(C)C)ccc3[n+]2C)c(C)n1-c1ccccc1 | 0.226 µM | 1.42 µM | 0.987 µM | 7.79 µM | 0.636 µM | 0.76 µM | 3.92 | 1.27 µM | 0.8 µM | 2.52 µM | 0.0835 µM | 0.197 µM | 0.199 | 0.174 µM | 0.159 µM | 0.143 µM | 0.3 | 0.277 | 0.177 | 0.133 µM
6 | COc1cccc(-c2nc(-c3ccc(NC(=O)C(C)C)cc3)[nH]c2-c2ccnc(Br)c2)c1 | 3.32 µM | > 100 µM | 1.46 µM | > 100 µM | > 100 µM | > 100 µM | > 100 | 7.99 µM | > 100 µM | > 100 µM | 1.8 µM | 3.38 µM | 0.354 | 3.52 µM | 3.31 µM | 3.61 µM | 3.55 | 2.57 | 3.12 | 3.07 µM
7 | COc1cc(/C=C/c2cc(O)c(C(C)=O)c(O)c2)cc2c1O[C@]1(C)CC[C@@H](O)C(C)(C)[C@H]1C2 | 22.3 µM | 53.9 µM | 6.06 µM | > 100 µM | 72.8 µM | > 100 µM | 69 | 11.5 µM | 57.2 µM | > 100 µM | 7.12 µM | 4.67 µM | 1.7 | 5.52 µM | 9.07 µM | 8.24 µM | 6.44 | 2.89 | 7.38 | 4.05 µM
8 | Cn1cnc([N+](=O)[O-])c1S(=O)(=O)Oc1cccc2ccccc12 | 28.8 µM | 3.96 µM | 4.3 µM | 2.89 µM | 20.5 µM | 18.7 µM | 5.09 | 20.8 µM | 7.21 µM | 3.99 µM | 13.7 µM | 1.89 µM | 2.3 | 1.36 µM | 5.71 µM | 4.62 µM | 2.14 | 7.12 | 2.31 | 1.8 µM
9 | CN(C)CCSC1=Nc2ccc(Cl)cc2C(c2ccccc2Cl)=NC1 | 28.7 µM and > 100 µM | 31.8 µM and > 100 µM | 15.9 µM and > 100 µM | 34 µM and > 100 µM | 26.5 µM and > 100 µM | 20.2 µM and > 100 µM | > 100 | 19.1 µM and > 100 µM | 28.4 µM and 38.7 µM | 35.4 µM and > 100 µM | 15 µM and 43.3 µM | 17.3 µM and > 100 µM | – | 16.6 µM and 33.5 µM | 13.5 µM and > 100 µM | 6.63 µM and 43.5 µM | – | – | – | 15 µM and 40.6 µM
10 | CCN(CC)/C(SCc1ccccc1)=C(\C(Cl)=C(Cl)Cl)[N+](=O)[O-] | 30.5 µM | 24.3 µM | 26.6 µM | 50.4 µM | 42.4 µM | 31.7 µM | 33.8 | 18.1 µM | 32 µM | 81.7 µM | – | – | – | – | – | – | – | – | – | –
11 | NC1(C(=O)OCc2ccccc2)CCCC1 | 37.4 µM | 28.7 µM | 33.7 µM | > 100 µM | 54 µM | 37.4 µM | 38.8 | 37 µM | 41.2 µM | > 100 µM | – | – | – | – | – | – | – | – | – | –
12 | O=C(CCc1nnc2sc(-c3ccc(Cl)cc3Cl)nn12)c1nc2ncccc2[nH]1 | 3.09 µM | 3.1 µM | 3.34 µM | 3.68 µM | 4.92 µM | > 100 µM | 3.8 | 3.31 µM | 3.68 µM | 11.8 µM | 1.7 µM | 1.52 µM | 1.8 | 1.56 µM | 1.99 µM | 3.44 µM | 1.82 | 1.65 | 1.75 | 2.93 µM
13 | COc1ccc(-c2nnc(COc3ccc(NC(=O)Nc4cc(C(F)(F)F)cc(C(F)(F)F)c4)cc3F)o2)cc1 | 3.84 µM | 4.66 µM | 6.06 µM | 5.72 µM | 5.39 µM | 5.85 µM | 10.9 | 7.13 µM | 5 µM | 4.74 µM | 1.73 µM | 1.5 µM | 1.96 | 2.19 µM | 1.93 µM | 1.89 µM | 2.95 | 2.11 | 2.11 | 2.21 µM
14 | OC(c1nc2ccccc2[nH]1)C(O)C(O)C(O)c1nc2ccccc2[nH]1 (stereo not given) | > 100 µM | > 100 µM | > 100 µM | > 100 µM | > 100 µM | > 100 µM | > 100 | > 100 µM | > 100 µM | > 100 µM | – | – | – | – | – | – | – | – | – | –
15 | CSc1nc(NC2OCC(OC(C)=O)C(OC(C)=O)C2OC(C)=O)c(N=CC=Nc2c(NC3OCC(OC(C)=O)C(OC(C)=O)C3OC(C)=O)nc(SC)[nH]c2=O)c(=O)[nH]1 (stereo not given) | > 100 µM | > 100 µM | 53 µM | > 100 µM | > 100 µM | > 100 µM | > 100 | > 100 µM | > 100 µM | > 100 µM | – | – | – | – | – | – | – | – | – | –
16 | O=C(CSc1ccc(Cl)cc1)Nc1ccc(-c2nc3ccccc3s2)c(Cl)c1 | 23 µM | 8.01 µM | 55.8 µM | 83.4 µM | 72.8 µM | > 100 µM | 75.8 | 15.1 µM | 35.4 µM | > 100 µM | 10.4 µM | 2.43 µM | 14.1 | 3.67 µM | 3.57 µM | 5.09 µM | 0.744 | 2.77 | 3.72 | 6.86 µM
17 | COc1c(Cl)c(=O)oc2ccc(Cl)cc12 | > 100 µM | > 100 µM | > 100 µM | > 100 µM | > 100 µM | > 100 µM | > 100 | > 100 µM | > 100 µM | > 100 µM | – | – | – | – | – | – | – | – | – | –
18 | C[C@@H]1CCC2[C@@H](C)[C@@H](OCC(CO[C@H]3OC4O[C@@]5(C)CC[C@H]6[C@H](C)CCC([C@H]3C)[C@@]46OO5)OC(=O)CCC(=O)O)OC3O[C@@]4(C)CC[C@@H]1[C@]32OO4 (stereo not given in full) | 17.5 µM | 15.8 µM | 0.205 µM | 18.1 µM | 23.4 µM | 27.2 µM | > 69 | 21.2 µM | 13 µM | > 34.9 µM | 0.147 µM | 0.02 µM | < 0.01 | 0.0285 µM | 0.374 µM | 0.511 µM | 12.6 | 0.0765 | < 0.0115 | < 0.01 µM
19 | COC(=O)C1=C(C)NC(C)=C(C(=O)OCCCN2CCC(c3ccccc3)(c3ccccc3)CC2)C1c1cccc([N+](=O)[O-])c1 (stereo not given) | 3.16 µM | 2.8 µM | 3.43 µM | 3.75 µM | 2.99 µM | 3.39 µM | 3.21 | 3.24 µM | 3.02 µM | 2.71 µM | – | – | – | – | – | – | – | – | – | –
